According to patent US9382245B2, “Compounds and methods for treating HIV infections” (priority 2013, dated 2016):
Like-named read-outs stand apart in the source and are kept apart here.

Key:
human MT-2 T-cells = conditions: human
[1] = Aqueous solubility, shake-flask procedure; assay type: physicochemical; conditions: Britton-Robinson buffer, 25 °C, pH 6.5, aqueous buffer, thermodynamic from solid
Method: Poor solubility, which has been a problem for many NNRTIs, often leads too low bioavailability, difficulties in formulation, and high dosages.^6,32,33 The issue reflects the hydrophobic nature of the NNRTI binding site. In the design of the catechol diethers, attention was paid to having both good potency and aqueous solubility. In our laboratory, solubilities are measured using a shake-flask procedure.^6,34 The compounds are dissolved in Britton-Robinson buffer and stirred in vials for 48 hours at 25° C. The pH of the buffer solutions is 6.5 as measured by a Corning General Purpose pH Combination probe (4136L21).

in vitro = conditions: human

SMILES | CC50 (human MT-2 T-cells) [µM] | CC50 (in vitro) [µM] | other results
N#C/C=C/c1cc(Cl)cc(Oc2ccccc2OCCn2ccc(=O)[nH]c2=O)c1 [1c, (E)-3-(3-chloro-5-(2-(2-(2,4-dioxo-3,4-dihydropyrimidin-1(2H)-yl)ethoxy)phenoxy)phenyl)acrylonitrile] | 18 |  | solubility at 48 h ([1]; Table 2, pH 6.5, Britton-Robinson buffer, 48 hours at 25° C., read-out: S, aqueous solubility): 510 µg/mL; solubility at 48 h ([1]; shake-flask, pH 6.5, read-out: aqueous solubility): 510 µg/mL
O=c1ccn(CCOc2ccccc2Oc2cccc3[nH]ccc23)c(=O)[nH]1 [8a, 1-(2-(2-((1H-indol-4-yl)oxy)phenoxy)ethyl)pyrimidine-2,4(1H,3H)-dione] |  | 53 | 
O=c1ccn(CCOc2cc(Cl)ccc2Oc2cccc3[nH]ccc23)c(=O)[nH]1 [8b, 1-(2-(2-((1H-indol-4-yl)oxy)-5-chlorophenoxy)ethyl)pyrimidine-2,4(1H,3H)-dione] |  | 18 | 
Cc1cc2c(Oc3ccccc3OCCn3ccc(=O)[nH]c3=O)cccc2[nH]1 [8c, 1-(2-(2-((2-methyl-1H-indol-4-yl)oxy)phenoxy)ethyl)pyrimidine-2,4(1H,3H)-dione] |  | 15 | 
N#Cc1cc2c(Oc3ccccc3OCCn3ccc(=O)[nH]c3=O)cccc2[nH]1 [8d, 4-(2-(2-(2,4-dioxo-3,4-dihydropyrimidin-1(2H)-yl)ethoxy)phenoxy)-1H-indole-2-carbonitrile] |  | 72 | 
Cc1cc(Oc2ccccc2OCCn2ccc(=O)[nH]c2=O)c2cc(C#N)[nH]c2c1 [8e, 4-(2-(2-(2,4-dioxo-3,4-dihydropyrimidin-1(2H)-yl)ethoxy)phenoxy)-6-methyl-1H-indole-2-carbonitrile] |  | 1.2 | 
N#Cc1cc2c(Oc3ccccc3OCCn3ccc(=O)[nH]c3=O)cc(Cl)cc2[nH]1 [8f, 6-chloro-4-(2-(2-(2,4-dioxo-3,4-dihydropyrimidin-1(2H)-yl)ethoxy)phenoxy)-1H-indole-2-carbonitrile] |  | 81 | 
Cc1cc2c(Oc3ccccc3OCCn3ccc(=O)[nH]c3=O)cccn2c1 [10a, 1-(2-(2-((2-methylindolizin-8-yl)oxy)phenoxy)ethyl)pyrimidine-2,4(1H,3H)-dione] |  | 9 | 
N#Cc1cc2c(Oc3ccccc3OCCn3ccc(=O)[nH]c3=O)cccn2c1 [10b, 8-(2-(2-(2,4-dioxo-3,4-dihydropyrimidin-1(2H)-yl)ethoxy)phenoxy)indolizine-2-carbonitrile] | > 100 | > 100 | 
Cc1cc(Oc2ccccc2OCCn2ccc(=O)[nH]c2=O)c2cc(C#N)cn2c1 [10c, 8-(2-(2-(2,4-dioxo-3,4-dihydropyrimidin-1(2H)-yl)ethoxy)phenoxy)-6-methylindolizine-2-carbonitrile] |  | 3 | 
N#Cc1cc2c(Oc3ccccc3OCCn3ccc(=O)[nH]c3=O)cc(F)cn2c1 [10d, 8-(2-(2-(2,4-dioxo-3,4-dihydropyrimidin-1(2H)-yl)ethoxy)phenoxy)-6-fluoroindolizine-2-carbonitrile] | 40 |  | 
N#Cc1cc2c(Oc3ccc(F)cc3OCCn3ccc(=O)[nH]c3=O)cc(Cl)cn2c1 [10i, 6-chloro-8-(2-(2-(2,4-dioxo-3,4-dihydropyrimidin-1(2H)-yl)ethoxy)-4-fluorophenoxy)indolizine-2-carbonitrile] | 15 |  | 
N#Cc1cc2c(Oc3cc(F)ccc3OCCn3ccc(=O)[nH]c3=O)cccn2c1 [10j, 8-(2-(2-(2,4-dioxo-3,4-dihydropyrimidin-1(2H)-yl)ethoxy)-5-fluorophenoxy)indolizine-2-carbonitrile] |  | 35 | 
N#Cc1cc2c(Oc3cc(F)c(F)cc3OCCn3ccc(=O)[nH]c3=O)cccn2c1 [10k, 8-(2-(2-(2,4-dioxo-3,4-dihydropyrimidin-1(2H)-yl)ethoxy)-4,5-difluorophenoxy)indolizine-2-carbonitrile] |  | 19 | 
N#Cc1cc2c(Oc3cc(F)c(F)cc3OCCn3ccc(=O)[nH]c3=O)cc(F)cn2c1 [10l, 8-(2-(2-(2,4-dioxo-3,4-dihydropyrimidin-1(2H)-yl)ethoxy)-4,5-difluorophenoxy)-6-fluoroindolizine-2-carbonitrile] |  | 54 | 
N#Cc1cc2c(Oc3ccc(Cl)cc3OCCn3ccc(=O)[nH]c3=O)cccn2c1 [10m, 8-(4-chloro-2-(2-(2,4-dioxo-3,4-dihydropyrimidin-1(2H)-yl)ethoxy)phenoxy)indolizine-2-carbonitrile] |  | 55 | 
N#Cc1cc2c(Oc3ccc(Cl)cc3OCCn3ccc(=O)[nH]c3=O)cc(Cl)cn2c1 [10n, 6-chloro-8-(4-chloro-2-(2-(2,4-dioxo-3,4-dihydropyrimidin-1(2H)-yl)ethoxy)phenoxy)indolizine-2-carbonitrile] |  | 20 | 
N#Cc1cc2c(Oc3ccccc3OCCn3ccc(=O)[nH]c3=O)cccc2o1 [12a, 4-(2-(2-(2,4-dioxo-3,4-dihydropyrimidin-1(2H)-yl)ethoxy)phenoxy)benzofuran-2-carbonitrile] | > 100 | > 100 | 
Cc1cc(Oc2ccccc2OCCn2ccc(=O)[nH]c2=O)c2cc(C#N)oc2c1 [12b, 4-(2-(2-(2,4-dioxo-3,4-dihydropyrimidin-1(2H)-yl)ethoxy)phenoxy)-6-methylbenzofuran-2-carbonitrile] |  | > 100 | 

SMILES | CC50 (human MT-2 T-cells) [µM] | CC50 (in vitro) [µM] | other results
N#Cc1cc2c(Oc3ccccc3OCCn3ccc(=O)[nH]c3=O)cc(Cl)cc2o1 [12c, 6-chloro-4-(2-(2-(2,4-dioxo-3,4-dihydropyrimidin-1(2H)-yl)ethoxy)phenoxy)benzofuran-2-carbonitrile] | > 100 | > 100 | 
N#Cc1cc2c(Oc3ccc(F)cc3OCCn3ccc(=O)[nH]c3=O)cccc2o1 [12d, 4-(2-(2-(2,4-dioxo-3,4-dihydropyrimidin-1(2H)-yl)ethoxy)-4-fluorophenoxy)benzofuran-2-carbonitrile] | > 100 | > 100 | 
Cc1cc(Oc2ccc(F)cc2OCCn2ccc(=O)[nH]c2=O)c2cc(C#N)oc2c1 [12e, 4-(2-(2-(2,4-dioxo-3,4-dihydropyrimidin-1(2H)-yl)ethoxy)-4-fluorophenoxy)-6-methylbenzofuran-2-carbonitrile] |  | > 100 | 
O=c1ccn(CCOc2cc(Cl)ccc2Oc2cccc3occc23)c(=O)[nH]1 [12f, 1-(2-(2-(benzofuran-4-yloxy)-5-chlorophenoxy)ethyl)pyrimidine-2,4(1H,3H)-dione] |  | 19 | 
Cc1cc2c(Oc3ccc(Cl)cc3OCCn3ccc(=O)[nH]c3=O)cccc2o1 [12g, 1-(2-(5-chloro-2-((2-methylbenzofuran-4-yl)oxy)phenoxy)ethyl)pyrimidine-2,4(1H,3H)-dione] |  | 8 | 
N#Cc1cc2c(Oc3ccc(Cl)cc3OCCn3ccc(=O)[nH]c3=O)cccc2o1 [12h, 4-(4-chloro-2-(2-(2,4-dioxo-3,4-dihydropyrimidin-1(2H)-yl)ethoxy)phenoxy)benzofuran-2-carbonitrile] |  | 7 | 
O=c1ccn(CCOc2cc(Cl)ccc2Oc2cccc3ccoc23)c(=O)[nH]1 [13a, 1-(2-(2-(benzofuran-7-yloxy)-5-chlorophenoxy)ethyl)pyrimidine-2,4(1H,3H)-dione] |  | 50 | 
Cc1ccc2c(Oc3ccccc3OCCn3ccc(=O)[nH]c3=O)cccc2c1 [14b, 1-(2-(2-((6-methylnaphthalen-1-yl)oxy)phenoxy)ethyl)pyrimidine-2,4(1H,3H)-dione] | 40 |  | 
O=c1ccn(CCOc2ccccc2Oc2cccc3cc(Cl)ccc23)c(=O)[nH]1 [14c, 1-(2-(2-((6-chloronaphthalen-1-yl)oxy)phenoxy)ethyl)pyrimidine-2,4(1H,3H)-dione] | > 100 |  | 
O=c1ccn(CCOc2ccccc2Oc2cc(Cl)cc3cc(Cl)ccc23)c(=O)[nH]1 [14d, 1-(2-(2-((3,6-dichloronaphthalen-1-yl)oxy)phenoxy)ethyl)pyrimidine-2,4(1H,3H)-dione] | 45 |  | 
N#Cc1ccc2c(Oc3ccccc3OCCn3ccc(=O)[nH]c3=O)cc(Cl)cc2c1 [14f, 7-chloro-5-(2-(2-(2,4-dioxo-3,4-dihydropyrimidin-1(2H)-yl)ethoxy)phenoxy)-2-naphthonitrile] | 24 |  | 
N#Cc1ccc2c(Oc3ccc(F)cc3OCCn3ccc(=O)[nH]c3=O)cc(Cl)cc2c1 [14g, 7-chloro-5-(2-(2-(2,4-dioxo-3,4-dihydropyrimidin-1(2H)-yl)ethoxy)-4-fluorophenoxy)-2-naphthonitrile] | 16 |  | 
N#Cc1ccc2c(Oc3ccc(Cl)cc3OCCn3ccc(=O)[nH]c3=O)cc(Cl)cc2c1 [14h, 7-chloro-5-(4-chloro-2-(2-(2,4-dioxo-3,4-dihydropyrimidin-1(2H)-yl)ethoxy)phenoxy)-2-naphthonitrile] | 20 |  | 
N#Cc1ccc2c(Oc3ccc(F)cc3OCCn3ccc(=O)[nH]c3=O)cccc2c1 [14i, 5-(2-(2-(2,4-dioxo-3,4-dihydropyrimidin-1(2H)-yl)ethoxy)-4-fluorophenoxy)-2-naphthonitrile] | > 100 | > 100 | 
N#Cc1ccc2c(Oc3ccc(Cl)cc3OCCn3ccc(=O)[nH]c3=O)cccc2c1 [14j, 5-(4-chloro-2-(2-(2,4-dioxo-3,4-dihydropyrimidin-1(2H)-yl)ethoxy)phenoxy)-2-naphthonitrile] | > 100 |  | 
N#Cc1ccc2c(Oc3ccccc3OCCn3ccc(=O)[nH]c3=O)cc(F)cc2c1 [14k, 5-(2-(2-(2,4-dioxo-3,4-dihydropyrimidin-1(2H)-yl)ethoxy)phenoxy)-7-fluoro-2-naphthonitrile] | > 100 | > 100 | 
N#Cc1ccc2c(Oc3ccc(F)cc3OCCn3ccc(=O)[nH]c3=O)cc(F)cc2c1 [14l, 5-(2-(2-(2,4-dioxo-3,4-dihydropyrimidin-1(2H)-yl)ethoxy)-4-fluorophenoxy)-7-fluoro-2-naphthonitrile] | > 100 | > 100 | 
N#Cc1ccc2c(Oc3ccc(Cl)cc3OCCn3ccc(=O)[nH]c3=O)cc(F)cc2c1 [14m, 5-(4-chloro-2-(2-(2,4-dioxo-3,4-dihydropyrimidin-1(2H)-yl)ethoxy)phenoxy)-7-fluoro-2-naphthonitrile] | 18 |  | 
